Experimental data: patent US20260206813A1, “COMPOSITION FOR PROMOTING GHRELIN SECRETION” (Meiji Co., Ltd., priority 2022, published 2026)

Tested on: mouse stomach-derived ghrelin-secreting cell line MGN3-1
Assay: Secretion of active (acylated) ghrelin from MGN3-1 cells, ELISA
Assay type: cell-based
Conditions: for Acylated ghrelin (% control): 2 hours culture, control = 100; for ghrelin secretion promoting effect: conclusion from Table 3, absence of a gastric lipase
Procedure: The mouse stomach-derived ghrelin-secreting cell line MGN3-1 was seeded at 1×10^5 cells/well in a 96-well plate and cultured for 24 hours. After culturing, the cells were washed with 200 μL of Dulbecco's PBS, and 100 μL of each solution containing one test substance as indicated in Table 1 (buffer solution: 50 μM sodium octanoate/DMEM) was added (test group). The concentration of the test substance was applied at 10 μM or 30 μM. In the control group, 100 μL of a buffer solution without test substance was added. The number of trials performed, n, for each group was 4. After each group was cultured for 2 hours, a culture solution was recovered and centrifuged (800 g, 5 minutes, 4° C.) to obtain 80 μL of a supernatant. The supernatant was added with 8 μL of 1 N HCl and stored at −80° C. Next, active ghrelin (acylated ghrelin) in the sample was measured by the ELISA method (Ghrelin (Acylated) EIA Kit A05117, Bertin Pharma). Average values of measured values of the concentrations of ghrelin secreted when the test substances as indicated in Table 2 or Table 3 were added were calculated and indicated as values (%) assuming that the value of the control is 100 (Tables 2 and 3). The test was conducted again using the same testing method as described above, and the concentration of active ghrelin (acylated ghrelin) secreted in the sample was measured (FIGS. 2 and 3).
Statistical analysis was performed using a t-test or one-way ANOVA (one-way analysis of variance), and a multiple comparison test was conducted using the Tukey-Kramer test.

[1] = Table 2, test substance 10 μM, n=4
[2] = Table 2, test substance 30 μM, n=4
[3] = Table 3, test substance 30 μM, n=4

SMILES	Acylated ghrelin (% control) [1] [% control]	Acylated ghrelin (% control) [2] [% control]	Acylated ghrelin (% control) [3] [% control]	ghrelin secretion promoting effect (30 μM)	other results
CCCCCCCCCCCCCCCC(=O)OCC(O)CO (centres unmarked) [Test substance 3, 1-Monopalmitin]	105	134			difference of acylated ghrelin from the control (Table 2, 10 μM): no differences; acylated ghrelin concentration as compared with the control (Table 2, printed 30 M): increase
CCCCCCCC/C=C\CCCCCCCC(=O)OCC(O)CO (centres unmarked) [Test substance 5, 1-Monoolein]	177	209	388		
CCCCCCCC/C=C\CCCCCCCC(=O)O [Test substance 2, Oleic acid]	146	138			
CCCCCCCCCCCCCCCC(=O)OC(CO)CO [Test substance 4, 2-Monopalmitin]	168	218	389		increase of acylated ghrelin concentration as compared with the control (FIG. 1, repeat test, 30 μM, n=4, significant (p<0.05)): about 1.2 times
CCCCCCCC/C=C\CCCCCCCC(=O)OCC(COC(=O)CCCCCCC/C=C\CCCCCCCC)OC(=O)CCCCCCCCCCCCCCC [Test substance 9, 1,3-Dioleoyl-2-palmitoylglycerol]			116	ghrelin secretion promoting effect	acylated ghrelin concentration as compared with the control (summary of Table 3, 30 μM): increased
CCCCCCCC/C=C\CCCCCCCC(=O)OC(COC(=O)CCCCCCCCCCCCCCC)COC(=O)CCCCCCCCCCCCCCC [Test substance 10, 1,3-Dipalmitoyl-2-oleoylglycerol]			138	ghrelin secretion promoting effect	acylated ghrelin concentration as compared with the control (summary of Table 3, 30 μM): increased
CCCCCCCC/C=C\CCCCCCCC(=O)OC(CO)COC(=O)CCCCCCCCCCCCCCC (centres unmarked) [Test substance 8, 1-Palmitoyl-2-oleoylglycerol]			206	ghrelin secretion promoting effect	
CCCCCCCC/C=C\CCCCCCCC(=O)OCC(CO)OC(=O)CCCCCCCCCCCCCCC (centres unmarked) [Test substance 7, 1-Oleoyl-2-palmitoylglycerol]			237	ghrelin secretion promoting effect	
CCCCCCCC/C=C\CCCCCCCC(=O)OC(CO)CO [Test substance 6, 2-Monoolein]	193	206	336		
CCCCCCCCCCCCCCCC(=O)O [Test substance 1, Palmitic acid, reference compound]	82	107			difference of acylated ghrelin from the control (Table 2, concentration not stated (10 μM and 30 μM tested)): no differences
